Reference: patent publication US20250066290A1, “DHODH INHIBITORS CONTAINING A CARBOXYLIC ACID BIOISOSTERE” (IMMUNIC AG, priority 2021, published 2025)
Like-named read-outs stand apart in the source and are kept apart here.

Columns and labels:
SARS-CoV-2 = SARS-CoV-2 viral replication (YFP) assay; assay type: cell-based; conditions: Severe acute respiratory syndrome coronavirus 2, read-out: EC50 range
[1] = target: N-terminally truncated recombinant hDHODH enzyme (Homo sapiens, UniProt Q02127); assay: biochemical; assay type: biochemical
N-terminally truncated recombinant hDHODH enzyme, sequence (Q02127 whole entry, looked up, the tested form may be a part): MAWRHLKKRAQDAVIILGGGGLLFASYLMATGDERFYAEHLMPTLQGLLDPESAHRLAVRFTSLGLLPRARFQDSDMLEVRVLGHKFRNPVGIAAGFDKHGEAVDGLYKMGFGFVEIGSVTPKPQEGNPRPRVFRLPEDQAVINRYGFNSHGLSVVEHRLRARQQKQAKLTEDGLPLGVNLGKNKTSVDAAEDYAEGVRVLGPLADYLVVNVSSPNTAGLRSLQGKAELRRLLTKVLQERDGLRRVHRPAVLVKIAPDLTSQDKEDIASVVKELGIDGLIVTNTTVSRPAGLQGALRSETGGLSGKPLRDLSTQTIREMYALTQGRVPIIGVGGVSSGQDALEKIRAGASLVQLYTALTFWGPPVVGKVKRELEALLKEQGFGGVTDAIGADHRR
Protocol: Briefly, the hDHODH concentration was adjusted in a way that an average slope of approximately 0.2 AU/min served as the positive control (e.g. without inhibitor). The standard assay mixture contained 60 μM 2,6-dichloroindophenol, 50 μM decylubiquinone and 100 μM dihydroorotate. The hDHODH enzyme with or without at least six different concentrations of the compounds was added and measurements were performed in 50 mM TrisHCl, 150 mM KCl and 0.1% Triton X-100 at pH 8.0 and at 30° C. The reaction was started by adding dihydroorotate and measuring the absorption at 600 nm for 2 min. For the determination of the IC50 values, each data point was recorded in triplicate. […].

[2] = human DHODH assay, read-out: IC50 range

| Structure (SMILES) | EC50 (SARS-CoV-2) | IC50 [1, 2] | IC50 [1] |
| --- | --- | --- | --- |
| [2H]C([2H])([2H])Oc1cccc(-c2cc(F)c(NC(=O)C3=C(C(=O)NOC)CC(F)(F)C3)c(F)c2)c1 [4/25] | < 1000 nM | < 100 nM |  |
| [2H]C([2H])([2H])Oc1ccccc1-c1c(F)c(F)c(NC(=O)C2=C(C(=O)NOC)CCC2)c(F)c1F [4/26] | < 1000 nM | < 100 nM |  |
| [2H]C([2H])([2H])Oc1ccccc1-c1c(F)c(F)c(NC(=O)C2=C(C(=O)NOCCO)CCC2)c(F)c1F [4/27] | < 1000 nM |  | 100 to 1000 nM |
| [2H]C([2H])([2H])Oc1cccc(-c2c(F)c(F)c(NC(=O)c3cscc3C(=O)NOC)c(F)c2F)c1 [4/28] | < 1000 nM | < 100 nM |  |
| [2H]C([2H])([2H])Oc1cccc(-c2c(F)c(F)c(NC(=O)C3=C(C(=O)NOCCO)CC(F)(F)C3)c(F)c2F)c1 [4/29] | < 1000 nM | < 100 nM |  |
| [2H]C([2H])([2H])Oc1cccc(-c2c(F)c(F)c(NC(=O)c3c[nH]cc3C(=O)NOC)c(F)c2F)c1 [4/30] | < 10000 nM |  | 100 to 1000 nM |
| [2H]C([2H])([2H])ONC(=O)c1cscc1C(=O)Nc1c(F)c(F)c(-c2cccc(OC([2H])([2H])[2H])c2)c(F)c1F [4/31] | < 1000 nM | < 100 nM |  |
| [2H]C([2H])([2H])ONC(=O)c1cscc1C(=O)Nc1c(F)c(F)c(-c2ccccc2OC([2H])([2H])[2H])c(F)c1F [4/32] | < 1000 nM | < 100 nM |  |
| [2H]c1c([2H])c(F)c([2H])c(-c2c(F)c(F)c(NC(=O)C3=C(C(=O)NOC([2H])([2H])[2H])COC3)c(F)c2F)c1[2H] [5/2] | < 1000 nM |  | 100 to 1000 nM |
| [2H]C([2H])([2H])Oc1cccc(-c2c(F)c(F)c(NC(=O)C3=C(C(=O)NOCCO)COC3)c(F)c2F)c1 [5/6] | < 10000 nM |  | 100 to 1000 nM |
| [2H]C([2H])([2H])Oc1cccc(-c2c(F)c(F)c(NC(=O)C3=C(C(=O)NOCCO)CSC3)c(F)c2F)c1 [6/2] | < 10000 nM | < 100 nM |  |
| [2H]C([2H])([2H])Oc1ccccc1-c1c(F)c(F)c(NC(=O)C2=C(C(=O)NOCCO)CSC2)c(F)c1F [6/3] | < 1000 nM | < 100 nM |  |
| [2H]C([2H])([2H])Oc1cccc(-c2cc(F)c(NC(=O)C3=C(C(=O)NOC)CCC3)c(OC([2H])([2H])[2H])c2)c1 [8/2] | < 10000 nM |  | 1000 to 10000 nM |
| [2H]C([2H])([2H])Oc1cccc(-c2cc(F)c(NC(=O)C3=C(C(=O)NOC)CCC3)c(C#N)c2)c1 [8/3] | < 10000 nM |  | 1000 to 10000 nM |
| [2H]C([2H])([2H])ONC(=O)c1sccc1C(=O)Nc1c(F)cc(-c2cccc(OC([2H])([2H])[2H])c2)cc1F [9/2] | < 1000 nM | < 100 nM |  |
| [2H]C([2H])([2H])Oc1cccc(-c2c(F)cc(NC(=O)c3ccsc3C(=O)NOC)cc2F)c1 [9/3] | < 1000 nM | < 100 nM |  |
| [2H]C([2H])([2H])Oc1cccc(-c2ccc(NC(=O)c3ccsc3C(=O)NOC)c(F)c2F)c1 [9/4] | < 1000 nM | < 100 nM |  |
| [2H]C([2H])([2H])Oc1cccc(-c2cc(F)c(NC(=O)c3ccsc3C(=O)NOC)c(F)c2F)c1 [9/5] | < 1000 nM | < 100 nM |  |
| [2H]C([2H])([2H])Oc1cccc(-c2c(F)c(F)c(NC(=O)c3ccsc3C(=O)NOCCO)c(F)c2F)c1 [9/7] | < 1000 nM | < 100 nM |  |
| [2H]C([2H])([2H])Oc1cccc(-c2c(F)c(F)c(NC(=O)c3occc3C(=O)NOC)c(F)c2F)c1 [9/8] | < 1000 nM | < 100 nM |  |
| [2H]C([2H])([2H])Oc1cccc(-c2cc(F)c(NC(=O)C3=C(C(=O)NS(N)(=O)=O)COC3)c(F)c2)c1 [Example 2-1, N^3-(3,5-Difluoro-3′-(methoxy-d3)-[1,1′-biphenyl]-4-yl)-N^4-sulfamoyl-2,5-dihydrofuran-3,4-di-carboxamide] | 10000 to 25000 nM |  | 100 to 1000 nM |
| [2H]C([2H])([2H])Oc1cccc(-c2c(F)c(F)c(NC(=O)C3=C(C(=O)NS(N)(=O)=O)COC3)c(F)c2F)c1 [Example 2-1/1] | 10000 to 25000 nM | < 100 nM |  |
